Data as given in patent US7674789B2, “Compounds” (Glaxo Group Limited, priority 2005, dated 2010).
“Also recorded” adds a separate entry of the source. Counter-ions that a name gives are not always drawn.

Assays:
[1] = system: IL-6, IL-8, GM-CSF, RANTES and COX-2; conditions: a number of different cell types; cited from earlier work
[2] = system: TGF-β-induced fibronectin and thrombospondin; conditions: Laping et al., 2002, Molec. Pharmacol. 62:58-64; cited from earlier work
[3] = system: influx of neutrophils to the lung in LPS-challenged rats; assay: Rat LPS neutrophilia model; type: in vivo; conditions: intratracheal compound 15 min-24 hours before LPS aerosol (100 ug/ml, 15 min), lavage 4 hours later, in at least one of the range of conditions tested
Procedure: Rat LPS Neutrophilia Model
The effect of compounds on the influx of neutrophils to the lung in LPS-challenged rats is evaluated as follows. The test compound is suspended in one of the following solutions: 0.5% tween 80/PBS, 0.5% tween 80/saline, 10% EtOH/saline (with pH adjusted to 2.0, or 8.0 with HCl, or unadjusted), Saline @ pH 2.0, 6.5 or 8.0, 0.5% Tragacanth, 1% DMSO/20% Encapsin/Saline, or acidified 5% Tragacanth. The suspension process may be aided by the use of a glass homogenizer. For intratracheal administration, the animals are anesthetized with inhaled isoflurane and placed in a supine position, the trachea is intubated with a steel gavage needle (1.5 inch, 22 gauge, small ball) or a Penn-Century Microsprayer Aerosolizer (model IA-1B) and 200 ul of dosing solution is delivered. The animals are visually monitored during the recovery process, which typically occurs within two minutes.
Rats treated with compound or vehicle (15 min-24 hours pretreatment) are exposed to an LPS aerosol (100 ug/ml) for 15 min. Four hours later the rats are euthanized with pentobarbital (100 mg/kg, i.p.) and the airways are lavaged with 5 washes of 5 ml of phosphate buffered saline. The harvested cells are stained (Diffquick) and counted to determine total and differential cell data. In a typical study, macrophages represent 40-70% of the total cells, and polymorphonuclear cells 30-60% of the total cells. Inhibition of neutrophil levels relative to no compound controls is calculated based on the differential counts.
The assay has varying conditions, such as concentration, pretreat time, form of the compound (crystalline, amorphous, salts, micronised), and a wet or dry application of the compound. The data is obtained as % inhibition using a particular concentration and pretreat time.

SMILES	inhibition of neutrophilia (neutrophil influx to the lung) [3]	other results
Fc1ccc(-c2nc3n(c2-c2ccncc2)CCS3)cc1 [SK&F 86002]		decreasing the synthesis of pro-inflammatory proteins including IL-6, IL-8, GM-CSF, RANTES and COX-2 [1]: effective
C[S+]([O-])c1ccc(-c2nc(-c3ccncc3)c(-c3ccc(F)cc3)[nH]2)cc1 (centres unmarked) [SB-203580]		decreasing the synthesis of pro-inflammatory proteins including IL-6, IL-8, GM-CSF, RANTES and COX-2 [1]: effective
COc1nccc(-c2c(-c3ccc(F)cc3)ncn2C2CCNCC2)n1 [SB-242235]		effect on TGF-β-induced increases in fibronectin and thrombospondin [2]: inhibited
Cc1ccc(C(=O)Nc2ccc(F)cc2)cc1-c1nc(N2CCC(N3CCCC3)CC2)nc2c1CNC(=O)N2c1c(F)cccc1F [86(c), 3-{8-(2,6-difluorophenyl)-7-oxo-2-[4-(1-pyrrolidinyl)-1-piperidinyl]-5,6,7,8-tetrahydropyrimido[4,5-d]pyrimidin-4-yl}-N-(4-fluorophenyl)-4-methylbenzamide]	statistically nonsignificant inhibition of neutrophilia	
Cc1ccc(C(=O)Nc2ccc(F)cc2)cc1-c1nc(N2CCC(N3CCCCC3)CC2)nc2c1CNC(=O)N2c1c(F)cccc1F [87(b), 3-[2-(1,4′-bipiperidin-1′-yl)-8-(2,6-difluorophenyl)-7-oxo-5,6,7,8-tetrahydropyrimido[4,5-d]pyrimidin-4-yl]-N-(4-fluorophenyl)-4-methylbenzamide]	statistically nonsignificant inhibition of neutrophilia	
CN(C)CCNc1nc(-c2cccc(C(=O)Nc3ccccc3)c2)c2c(n1)N(c1c(F)cccc1F)C(=O)NC2 [Example 91, 3-(8-(2,6-difluorophenyl)-2-{[2-(dimethylamino)ethyl]amino}-7-oxo-5,6,7,8-tetrahydropyrimido[4,5-d]pyrimidin-4-yl)-N-phenylbenzamide]	statistically significant inhibition of neutrophilia	
Cc1ccc(C(=O)NC(C)C)cc1-c1nc(NCCCN(C)C)nc2c1CNC(=O)N2c1c(F)cccc1F [Example 40, 3-(8-(2,6-difluorophenyl)-2-{[3-(dimethylamino)propyl]amino}-7-oxo-5,6,7,8-tetrahydropyrimido[4,5-d]pyrimidin-4-yl)-4-methyl-N-(1-methylethyl)benzamide]	statistically significant inhibition of neutrophilia	
CNC(=O)c1ccc(C)c(-c2nc(N3CCC(N4CCCC4)CC3)nc3c2CNC(=O)N3c2c(F)cccc2F)c1 [Example 175, 3-{8-(2,6-difluorophenyl)-7-oxo-2-[4-(1-pyrrolidinyl)-1-piperidinyl]-5,6,7,8-tetrahydropyrimido[4,5-d]pyrimidin-4-yl}-N,4-dimethylbenzamide]	inactive	
CSc1ccc(NC(=O)c2ccc(C)c(-c3nc(NCCN(C)C)nc4c3CNC(=O)N4c3c(F)cccc3F)c2)cc1 [Example 127, 3-(8-(2,6-difluorophenyl)-2-{[2-(dimethylamino)ethyl]amino}-7-oxo-5,6,7,8-tetrahydropyrimido[4,5-d]pyrimidin-4-yl)-4-methyl-N-[4-(methylthio)phenyl]benzamide]	statistically significant inhibition of neutrophilia	
CCc1ccc(C(=O)Nc2nccs2)cc1-c1nc(NCCN(C)C)nc2c1CNC(=O)N2c1c(F)cccc1F [Example 144, 3-(8-(2,6-difluorophenyl)-2-{[2-(dimethylamino)ethyl]amino}-7-oxo-5,6,7,8-tetrahydropyrimido[4,5-d]pyrimidin-4-yl)-4-ethyl-N-1,3-thiazol-2-ylbenzamide trifluoroacetate]	statistically significant inhibition of neutrophilia	
Cc1ccc(C(=O)NC(C)C)cc1-c1nc(NC2CCN(Cc3ccccc3)CC2)nc2c1CNC(=O)N2c1c(F)cccc1F [Example 200, 3-(8-(2,6-difluorophenyl)-7-oxo-2-{[1-(phenylmethyl)-4-piperidinyl]amino}-5,6,7,8-tetrahydropyrimido[4,5-d]pyrimidin-4-yl)-4-methyl-N-(1-methylethyl)benzamide]	statistically significant inhibition of neutrophilia	
Cc1ccc(C(=O)Nc2ccc(F)cc2)cc1-c1nc(NCCCN(C)C)nc2c1CNC(=O)N2c1c(F)cccc1F [Example 42, 3-(8-(2,6-difluorophenyl)-2-{[3-(dimethylamino)propyl]amino}-7-oxo-5,6,7,8-tetrahydropyrimido[4,5-d]pyrimidin-4-yl)-N-(4-fluorophenyl)-4-methylbenzamide]	statistically significant inhibition of neutrophilia	
Cc1ccc(NC(=O)c2ccsc2)cc1-c1nc(N2CCC(N)CC2)nc2c1CNC(=O)N2c1c(F)cccc1F [Example 11, N-{3-[2-(4-amino-1-piperidinyl)-8-(2,6-difluorophenyl)-7-oxo-5,6,7,8-tetrahydropyrimido[4,5-d]pyrimidin-4-yl]-4-methylphenyl}-3-thiophenecarboxamide]	statistically significant inhibition of neutrophilia	
Cc1ccc(C(=O)Nc2ccc(F)cc2)cc1-c1nc(N(C)CCCN(C)C)nc2c1CNC(=O)N2c1c(F)cccc1F [Example 9, 3-{8-(2,6-difluorophenyl)-2-[[3-(dimethylamino)-propyl](methyl)amino]-7-oxo-5,6,7,8-tetrahydropyrimido[4,5-d]pyrimidin-4-yl}-N-(4-fluorophenyl)-4-methylbenzamide]	statistically nonsignificant inhibition of neutrophilia	
Cc1ccc(C(=O)NC(C)C)cc1-c1nc(N2CCC(N3CCCC3)CC2)nc2c1CNC(=O)N2c1c(F)cccc1F [Example 60, 3-{8-(2,6-difluorophenyl)-7-oxo-2-[4-(1-pyrrolidinyl)-1-piperidinyl]-5,6,7,8-tetrahydropyrimido[4,5-d]pyrimidin-4-yl}-4-methyl-N-(1-methylethyl)benzamide]	statistically nonsignificant inhibition of neutrophilia; also recorded: inactive	
CSc1nc(-c2cc(NC(=O)c3ccc(C)c(F)c3)ccc2C)c2c(n1)N(c1c(F)cccc1F)C(=O)NC2 [23(c), N-{3-[8-(2,6-difluorophenyl)-2-(methylthio)-7-oxo-5,6,7,8-tetrahydropyrimido[4,5-d]pyrimidin-4-yl]-4-methylphenyl}-3-fluoro-4-methylbenzamide]	inactive	
Cc1ccc(C(=O)Nc2ccc(F)cc2)cc1-c1nc(NC2CCN(C)CC2)nc2c1CNC(=O)N2c1c(F)cccc1F [Example 39, 3-{8-(2,6-difluorophenyl)-2-[(1-methyl-4-piperidinyl)amino]-7-oxo-5,6,7,8-tetrahydropyrimido[4,5-d]pyrimidin-4-yl}-N-(4-fluorophenyl)-4-methylbenzamide]	statistically nonsignificant inhibition of neutrophilia	
